Data as given in PubChem BioAssay AID330 (DTP/NCI, 2004).
Several values for one entry are separate records, joined by “and”; a condition that tells them apart may be missing. Identical values can stand only once. Inconclusive results and toxic doses are left out.

Test system: P388 leukemia ip, CD2F1 mice, survival T/C
Experiment: NCI In Vivo Anticancer Drug Screen. Data for tumor model P388 Leukemia (intraperitoneal) in CD2F1 (CDF1) mice
Settings: endpoint: median survival time, higher = longer survival
Outline: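 Mice carrying the transplanted tumor received test compound or vehicle. Survival was recorded in each group, and the value is the treated-group measurement divided by that of the vehicle-treated control group.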

[1] = dose: 50.0 mg/kg/injection, schedule: Q01DX005 (ip), vehicle: saline with Tween-80
[2] = dose: 100.0 mg/kg/injection, schedule: Q01DX005 (ip), vehicle: saline with Tween-80
[3] = dose: 200.0 mg/kg/injection, schedule: Q01DX005 (ip), vehicle: saline with Tween-80
[4] = dose: 100.0 mg/kg/injection, schedule: Q01DX009 (ip), vehicle: saline with Tween-80
[5] = dose: 200.0 mg/kg/injection, schedule: Q01DX009 (ip), vehicle: saline with Tween-80
[6] = dose: 50.0 mg/kg/injection, schedule: Q01DX009 (ip), vehicle: saline with Tween-80

CN(C)c1ccc(C(=NNC(N)=S)c2ccc(N(C)C)cc2)cc1
T/C (dose: 12.5 mg/kg/injection, schedule: Q04DX003 (ip), vehicle: Klucel (hydroxypropylcellulose) (HPC)): 96 % of control
T/C (dose: 25.0 mg/kg/injection, schedule: Q04DX003 (ip), vehicle: Klucel (hydroxypropylcellulose) (HPC)): 105 % of control
T/C (dose: 50.0 mg/kg/injection, schedule: Q04DX003 (ip), vehicle: Klucel (hydroxypropylcellulose) (HPC)): 99 % of control and 108 % of control

CC(/C=N/Nc1ccccc1)=N\N=c1/scc(-c2ccc(Br)cc2)n1-c1ccc(Cl)cc1
T/C (dose: 12.5 mg/kg/injection, schedule: Q01DX001 (ip), vehicle: saline with Tween-80): 98 % of control
T/C (dose: 25.0 mg/kg/injection, schedule: Q01DX001 (ip), vehicle: saline with Tween-80): 89 % of control
T/C (dose: 50.0 mg/kg/injection, schedule: Q01DX001 (ip), vehicle: saline with Tween-80): 86 % of control

COc1ccc2c3c1OC1C(O)C=CC4C(C2O)N(C)CCC341 (stereo unspecified)
T/C (dose: 50.0 mg/kg/injection, schedule: Q01DX005 (ip), vehicle: saline + Tween-80 + alcohol): 100 % of control
T/C (dose: 100.0 mg/kg/injection, schedule: Q01DX005 (ip), vehicle: saline + Tween-80 + alcohol): 100 % of control
T/C (dose: 200.0 mg/kg/injection, schedule: Q01DX005 (ip), vehicle: saline + Tween-80 + alcohol): 100 % of control

C=C[CH2][Sn]([c]1ccccc1)([c]1ccccc1)[c]1ccccc1
T/C (dose: 6.25 mg/kg/injection, schedule: Q04DX003 (ip), vehicle: saline with Tween-80): 92 % of control
T/C (dose: 12.5 mg/kg/injection, schedule: Q04DX003 (ip), vehicle: saline with Tween-80): 100 % of control
T/C (dose: 25.0 mg/kg/injection, schedule: Q04DX003 (ip), vehicle: saline with Tween-80): 101 % of control

COc1cccc2c1oc1c3ccc(O)cc3oc(=O)c21
T/C (dose: 6.2 mg/kg/injection, schedule: Q01DX007 (ip), vehicle: carboxymethylcellulose (CMC)): 91 % of control

O=C(Cc1ccccc1)OCC1=CCN2CC[C@@H](O)[C@@H]12
T/C (dose: 15.0 mg/kg/injection, schedule: Q01DX009 (ip), vehicle: saline + alcohol): 97 % of control
T/C (dose: 30.0 mg/kg/injection, schedule: Q01DX009 (ip), vehicle: saline + alcohol): 99 % of control
T/C (dose: 60.0 mg/kg/injection, schedule: Q01DX009 (ip), vehicle: saline + alcohol): 97 % of control
T/C (dose: 120.0 mg/kg/injection, schedule: Q01DX009 (ip), vehicle: saline + alcohol): 109 % of control
T/C (dose: 240.0 mg/kg/injection, schedule: Q01DX009 (ip), vehicle: saline + alcohol): 105 % of control
T/C (dose: 480.0 mg/kg/injection, schedule: Q01DX009 (ip), vehicle: saline + alcohol): 116 % of control

CSc1ccc(NC(=S)SC(C)C)cc1Cl
T/C (dose: 50.0 mg/kg/injection, schedule: Q01DX009 (ip), vehicle: saline): 97 % of control
T/C (dose: 100.0 mg/kg/injection, schedule: Q01DX009 (ip), vehicle: saline): 97 % of control
T/C (dose: 200.0 mg/kg/injection, schedule: Q01DX009 (ip), vehicle: saline): 102 % of control

CCOC(=O)c1cnc2cc3c(cc2c1Nc1cccc(C)c1)OCO3
T/C (dose: 60.0 mg/kg/injection, schedule: Q01DX005 (ip), vehicle: Klucel (hydroxypropylcellulose) (HPC)): 95 % of control
T/C (dose: 120.0 mg/kg/injection, schedule: Q01DX005 (ip), vehicle: Klucel (hydroxypropylcellulose) (HPC)): 99 % of control
T/C (dose: 240.0 mg/kg/injection, schedule: Q01DX005 (ip), vehicle: Klucel (hydroxypropylcellulose) (HPC)): 91 % of control

O=[N+]([O-])c1ccc(Sc2cccc[n+]2[O-])c2nonc12
T/C (dose: 1.87 mg/kg/injection, schedule: Q01DX009 (ip), vehicle: Klucel (hydroxypropylcellulose) (HPC)): 107 % of control
T/C (dose: 3.75 mg/kg/injection, schedule: Q01DX009 (ip), vehicle: Klucel (hydroxypropylcellulose) (HPC)): 99 % of control
T/C (dose: 7.5 mg/kg/injection, schedule: Q01DX009 (ip), vehicle: Klucel (hydroxypropylcellulose) (HPC)): 101 % of control

C#Cc1cccc(N=Cc2cc(Cl)cc(Br)c2O)c1
T/C [1]: 105 % of control
T/C [2]: 102 % of control
T/C [3]: 107 % of control

O=P1(N2CCOCC2)OC(c2ccccc2)=CCN1c1ccccc1 (stereo unspecified)
T/C (dose: 50.0 mg/kg/injection, schedule: Q01DX005 (ip), vehicle: Klucel (hydroxypropylcellulose) (HPC)): 103 % of control
T/C (dose: 100.0 mg/kg/injection, schedule: Q01DX005 (ip), vehicle: Klucel (hydroxypropylcellulose) (HPC)): 103 % of control
T/C (dose: 200.0 mg/kg/injection, schedule: Q01DX005 (ip), vehicle: Klucel (hydroxypropylcellulose) (HPC)): 104 % of control

C=CC1C(OC2OC(CO)C(O)C(O)C2O)OC=C(C(=O)OC)C1CC1CC(=O)CC(CC(=O)CCc2ccc(O)cc2)O1 (stereo unspecified)
T/C (dose: 18.75 mg/kg/injection, schedule: Q01DX005 (ip), vehicle: water): 98 % of control
T/C (dose: 37.5 mg/kg/injection, schedule: Q01DX005 (ip), vehicle: water): 101 % of control
T/C (dose: 75.0 mg/kg/injection, schedule: Q01DX005 (ip), vehicle: water): 101 % of control
T/C (dose: 150.0 mg/kg/injection, schedule: Q01DX005 (ip), vehicle: water): 101 % of control

CSC(=NCCCCCCCCN=C(NC#N)SC)NC#N
T/C (dose: 50.0 mg/kg/injection, schedule: Q01DX009 (ip), vehicle: Klucel (hydroxypropylcellulose) (HPC)): 94 % of control
T/C (dose: 100.0 mg/kg/injection, schedule: Q01DX009 (ip), vehicle: Klucel (hydroxypropylcellulose) (HPC)): 102 % of control
T/C (dose: 200.0 mg/kg/injection, schedule: Q01DX009 (ip), vehicle: Klucel (hydroxypropylcellulose) (HPC)): 95 % of control

COc1ccc2c(c1)CCC1C2=CCS1(=O)=O (stereo unspecified)
T/C [1]: 103 % of control
T/C [2]: 94 % of control
T/C [3]: 92 % of control

O=C1C=CC2(CCC23C=C(Br)C(=O)O3)O1 (stereo unspecified)
T/C (dose: 5.0 mg/kg/injection, schedule: Q01DX009 (ip), vehicle: Klucel (hydroxypropylcellulose) (HPC)): 102 % of control
T/C (dose: 10.0 mg/kg/injection, schedule: Q01DX009 (ip), vehicle: Klucel (hydroxypropylcellulose) (HPC)): 108 % of control
T/C (dose: 20.0 mg/kg/injection, schedule: Q01DX009 (ip), vehicle: Klucel (hydroxypropylcellulose) (HPC)): 106 % of control

CCOC(=O)C(C(=O)OCC)c1c[n+]([O-])c2ccccc2c1[N+](=O)[O-]
T/C [4]: 104 % of control
T/C (dose: 100.0 mg/kg/injection, schedule: Q04DX003 (ip), vehicle: saline with Tween-80): 109 % of control
T/C [5]: 100 % of control
T/C (dose: 200.0 mg/kg/injection, schedule: Q04DX003 (ip), vehicle: saline with Tween-80): 104 % of control
T/C (dose: 400.0 mg/kg/injection, schedule: Q01DX009 (ip), vehicle: saline with Tween-80): 100 % of control
T/C (dose: 400.0 mg/kg/injection, schedule: Q04DX003 (ip), vehicle: saline with Tween-80): 95 % of control

CC(C)COC(CNC(=O)c1ccccc1)C(Cl)(Cl)Cl (stereo unspecified)
T/C [6]: 100 % of control
T/C [4]: 100 % of control
T/C [5]: 110 % of control

O=C(Nc1ccc2c(c1)oc(=O)c1ccccc12)C(Cl)Cl
T/C [1]: 96 % of control
T/C [2]: 98 % of control
T/C [3]: 89 % of control

CS(C)=NC(=Nc1ccc(Cl)cc1)c1ccccc1
T/C (dose: 25.0 mg/kg/injection, schedule: Q01DX009 (ip), vehicle: saline with Tween-80): 95 % of control
T/C [6]: 106 % of control

Cc1ncc([N+](=O)[O-])n1CCN=[N+]=[N-]
T/C (dose: 50.0 mg/kg/injection, schedule: Q04DX003 (ip), vehicle: saline): 99 % of control and 100 % of control
T/C (dose: 100.0 mg/kg/injection, schedule: Q04DX003 (ip), vehicle: saline): 101 % of control and 107 % of control
T/C (dose: 200.0 mg/kg/injection, schedule: Q04DX003 (ip), vehicle: saline): 100 % of control and 112 % of control
T/C (dose: 400.0 mg/kg/injection, schedule: Q04DX003 (ip), vehicle: saline): 100 % of control and 107 % of control

CC(C)(C)N1COC2CCCC21 (stereo unspecified)
T/C (dose: 12.5 mg/kg/injection, schedule: Q01DX005 (ip), vehicle: saline): 108 % of control
T/C (dose: 25.0 mg/kg/injection, schedule: Q01DX005 (ip), vehicle: saline): 100 % of control

CCC(C)Nc1ccc(N)cc1 (stereo unspecified)
T/C (dose: 0.1 mg/kg/injection, schedule: Q01DX009 (ip), vehicle: carboxymethylcellulose (CMC)): 115 % of control
T/C (dose: 0.39 mg/kg/injection, schedule: Q01DX009 (ip), vehicle: Klucel (hydroxypropylcellulose) (HPC)): 95 % of control
T/C (dose: 0.4 mg/kg/injection, schedule: Q01DX009 (ip), vehicle: carboxymethylcellulose (CMC)): 111 % of control
T/C (dose: 0.78 mg/kg/injection, schedule: Q01DX009 (ip), vehicle: Klucel (hydroxypropylcellulose) (HPC)): 102 % of control
T/C (dose: 1.56 mg/kg/injection, schedule: Q01DX009 (ip), vehicle: Klucel (hydroxypropylcellulose) (HPC)): 104 % of control and 110 % of control
T/C (dose: 3.12 mg/kg/injection, schedule: Q01DX009 (ip), vehicle: Klucel (hydroxypropylcellulose) (HPC)): 100 % of control and 119 % of control
T/C (dose: 6.25 mg/kg/injection, schedule: Q01DX009 (ip), vehicle: Klucel (hydroxypropylcellulose) (HPC)): 108 % of control and 112 % of control

O=S(=O)(O)O.[NH-]CC[NH-].[Pt+2]
T/C (dose: 6.25 mg/kg/injection, schedule: Q04DX002 (ip), vehicle: saline): 168 % of control
T/C (dose: 12.5 mg/kg/injection, schedule: Q04DX002 (ip), vehicle: saline): 97 % of control
